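These data come from cells grown in 96-well plates and exposed to compound for 48 hours at five concentrations. Here, GI50 denotes the concentration required for 50% inhibition of growth.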 The source made the active and inactive calls. Cut-off read from the data, not from the text of the source: active = GI50 up to about 1.1 µM and inactive = higher.
Experiments:
Assay in all cases: growth of human tumour cells (NCI), 48 h
HOP-62 = tested on: HOP-62
A549 = tested on: A549
OVCAR-8 = tested on: OVCAR-8
COLO 205 = tested on: COLO 205
SK-OV-3 = tested on: SK-OV-3
NCI/ADR-RES = tested on: NCI/ADR-RES
UACC-62 = tested on: UACC-62
SW-620 = tested on: SW-620
HCT-116 = tested on: HCT-116
SNB-19 = tested on: SNB-19
SNB-75 = tested on: SNB-75
NCI-H460 = tested on: NCI-H460
OVCAR-4 = tested on: OVCAR-4
MDA-N = tested on: MDA-N
HT-29 = tested on: HT-29
K562 = tested on: K562
KM12 = tested on: KM12
T47D = tested on: T47D
HCC 2998 = tested on: HCC 2998
ACHN = tested on: ACHN

| SMILES | GI50 (HOP-62) | GI50 (A549) | GI50 (OVCAR-8) | GI50 (COLO 205) | GI50 (SK-OV-3) | GI50 (NCI/ADR-RES) | GI50 (UACC-62) | GI50 (SW-620) | GI50 (HCT-116) | GI50 (SNB-19) | GI50 (SNB-75) | GI50 (NCI-H460) | GI50 (OVCAR-4) | GI50 (MDA-N) | GI50 (HT-29) | GI50 (K562) | GI50 (KM12) | GI50 (T47D) | GI50 (HCC 2998) | GI50 (ACHN) |
| --- | --- | --- | --- | --- | --- | --- | --- | --- | --- | --- | --- | --- | --- | --- | --- | --- | --- | --- | --- | --- |
| COC1(C)CCC(OS(C)(=O)=O)CO1 (stereo not given) | > 100 µM (inactive) | > 100 µM (inactive) | > 100 µM (inactive) | > 100 µM (inactive) | > 100 µM (inactive) | > 100 µM (inactive) | > 100 µM (inactive) | > 100 µM (inactive) | > 100 µM (inactive) | > 100 µM (inactive) | > 100 µM (inactive) | > 100 µM (inactive) | > 100 µM (inactive) | > 100 µM (inactive) | > 100 µM (inactive) | > 100 µM (inactive) | > 100 µM (inactive) | > 100 µM (inactive) | > 100 µM (inactive) | > 100 µM (inactive) |
| Cn1c2ccccc2c(=O)c2cccc(C(=O)NC(CCC(N)=O)C(=O)O)c21 (stereo not given) | > 100 µM (inactive) | > 100 µM (inactive) | > 100 µM (inactive) | > 100 µM (inactive) | > 100 µM (inactive) | 60.3 µM (inactive) | > 100 µM (inactive) | > 100 µM (inactive) | > 100 µM (inactive) | > 100 µM (inactive) | > 100 µM (inactive) | > 100 µM (inactive) | > 100 µM (inactive) | > 100 µM (inactive) | > 100 µM (inactive) | > 100 µM (inactive) | > 100 µM (inactive) | > 100 µM (inactive) | > 100 µM (inactive) | > 100 µM (inactive) |
| Cc1cc(C23OC4COC(C)(C)OC4C2OC(C)(C)O3)nc2ccccc12 (stereo not given) | > 100 µM (inactive) | > 100 µM (inactive) | > 100 µM (inactive) | > 100 µM (inactive) | > 100 µM (inactive) | > 100 µM (inactive) | > 100 µM (inactive) | > 100 µM (inactive) | > 100 µM (inactive) | > 100 µM (inactive) | > 100 µM (inactive) | > 100 µM (inactive) | > 100 µM (inactive) | > 100 µM (inactive) | 76.6 µM (inactive) | 44.1 µM (inactive) | > 100 µM (inactive) | > 100 µM (inactive) | > 100 µM (inactive) | > 100 µM (inactive) |
| C[C@@H]1CCC2[C@@H](C)[C@@H](O[C@H]3O[C@@H]4O[C@@]5(C)CCC6[C@H](C)CCC([C@H]3C)[C@]64OO5)O[C@@H]3O[C@@]4(C)CCC1[C@@]23OO4 (stereo not given in full) | > 25 µM (inactive) | 18.6 µM (inactive) | 1.19 µM (inactive) | 1.17 µM (inactive) | > 25 µM (inactive) | 1.45 µM (inactive) | 1.99 µM (inactive) | 1.16 µM (inactive) | 0.659 µM (active) | > 25 µM (inactive) | > 10.8 µM (inactive) | > 25 µM (inactive) | 7.62 µM (inactive) | 2.65 µM (inactive) | 1.31 µM (inactive) | 1.04 µM (active) | 0.865 µM (active) | 1.17 µM (inactive) | > 25 µM (inactive) | 3.27 µM (inactive) |
| CO[C@H]1C[C@@H]2CC[C@@H](C)[C@@](O)(O2)C(=O)C(=O)N2CCCC[C@H]2C(=O)O[C@H]([C@H](C)C[C@@H]2CC[C@@H](OC(=O)C(C)(CO)CO)[C@H](OC)C2)CC(=O)[C@H](C)/C=C(\C)[C@@H](O)[C@@H](OC)C(=O)[C@H](C)C[C@H](C)/C=C/C=C/C=C/1C [TEMSIROLIMUS] | 0.00125 µM (active) | 0.0301 µM (active) | 0.00388 µM (active) | 3.98 µM (inactive) | 1.97 µM (inactive) | 0.0881 µM (active) | 0.0141 µM (active) | 4.23 µM (inactive) | 3.26 µM (inactive) | 0.0258 µM (active) | 0.0104 µM (active) | 0.0678 µM (active) | 0.0247 µM (active) | 4.03 µM (inactive) | 0.0376 µM (active) | 0.0228 µM (active) | 0.0264 µM (active) | 0.000995 µM (active) | 1.82 µM (inactive) | 0.00723 µM (active) |
| COc1cccc(-c2cc(O)c3cc(OC)ccc3n2)c1 | 0.446 µM (active) | 0.367 µM (active) | 0.344 µM (active) | 0.201 µM (active) | 0.208 µM (active) | 0.173 µM (active) | 0.182 µM (active) | 0.281 µM (active) | 0.239 µM (active) | 0.39 µM (active) | 0.318 µM (active) | 0.365 µM (active) | 1.71 µM (inactive) | 0.047 µM (active) | 0.33 µM (active) | 0.128 µM (active) | 0.396 µM (active) | > 10 µM (inactive) | 0.291 µM (active) | 1.74 µM (inactive) |

From ChEMBL document CHEMBL1201862, “PubChem BioAssay data set” (2004)
